PubChem BioAssay (NCI)
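Values below derive from 48-hour exposures of cells grown in 96-well plates, with endpoints linearly interpolated between the two concentrations bracketing the appropriate inhibition level. TGI denotes the concentration required for complete inhibition of growth.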

Key:
Test in all cases: inhibition of tumour cell growth, NCI panel, 48 h
DLD-1 colon = system: DLD-1 colon
DMS 273 small cell lung = system: DMS 273 small cell lung
HOP-18 NSCLC = system: HOP-18 NSCLC
M19-MEL melanoma = system: M19-MEL melanoma
SNB-78 CNS = system: SNB-78 CNS
XF 498 CNS = system: XF 498 CNS
KM20L2 colon = system: KM20L2 colon
RXF-631 renal = system: RXF-631 renal

With `O=C(NN1C(=O)C(Cl)C1c1c(O)ccc2ccccc12)c1ccccc1O` (stereo not drawn) the TGI (DLD-1 colon) was > 100 µM, the TGI (DMS 273 small cell lung) was > 100 µM and the TGI (HOP-18 NSCLC) was > 100 µM. For the same molecule, the TGI (M19-MEL melanoma) was > 100 µM, the TGI (SNB-78 CNS) was > 100 µM and the TGI (XF 498 CNS) was > 100 µM.
`O[C@]12c3ccccc3C1CCCCC2N1CCOCC1` (stereo partly drawn) was tested, and the TGI (DMS 273 small cell lung) was > 100 µM, the TGI (HOP-18 NSCLC) was > 100 µM and the TGI (KM20L2 colon) was > 100 µM. For the same molecule, the TGI (M19-MEL melanoma) was > 100 µM, the TGI (SNB-78 CNS) was > 100 µM and the TGI (XF 498 CNS) was > 100 µM.
For `C/C(CC(=O)Nc1cccc(Cl)c1C)=N\N=C(N)N`, the TGI (DLD-1 colon) was > 100 µM, the TGI (DMS 273 small cell lung) was > 100 µM and the TGI (HOP-18 NSCLC) was > 100 µM. For the same molecule, the TGI (KM20L2 colon) was > 100 µM, the TGI (M19-MEL melanoma) was > 100 µM and the TGI (SNB-78 CNS) was > 100 µM. The TGI (XF 498 CNS) was > 100 µM.
With `CSc1nc(C)cc(=O)n1C1OC(COC(C)=O)C(OC(C)=O)C(OC(C)=O)C1OC(C)=O` (stereo not drawn) the TGI (DLD-1 colon) was > 100 µM, the TGI (DMS 273 small cell lung) was > 100 µM and the TGI (KM20L2 colon) was > 100 µM. For the same molecule, the TGI (M19-MEL melanoma) was > 100 µM and the TGI (XF 498 CNS) was > 100 µM.
With `COc1ccc2nc(-c3ccc(O)cc3)ccc2c1` the TGI (DLD-1 colon) was > 100 µM, the TGI (HOP-18 NSCLC) was > 100 µM and the TGI (KM20L2 colon) was > 100 µM. For the same molecule, the TGI (M19-MEL melanoma) was > 100 µM and the TGI (SNB-78 CNS) was > 100 µM.
`Cc1cc(OC(=O)c2c(C)cc(OC(=O)c3c(C)cc(O)cc3O)cc2O)cc(O)c1C(=O)O` was tested, and the TGI (DLD-1 colon) was > 100 µM, the TGI (DMS 273 small cell lung) was > 100 µM and the TGI (KM20L2 colon) was > 100 µM. The TGI (M19-MEL melanoma) was > 100 µM, the TGI (RXF-631 renal) was > 100 µM and the TGI (SNB-78 CNS) was > 100 µM. The TGI (XF 498 CNS) was > 100 µM.
`O=c1c2ccccc2n2cnc3ccc(NCCNCCO)c1c32` showed a TGI (DLD-1 colon) of 16.9 µM, a TGI (HOP-18 NSCLC) of 26.8 µM and a TGI (KM20L2 colon) of 12.1 µM. For the same molecule, the TGI (M19-MEL melanoma) was 12.9 µM, the TGI (RXF-631 renal) was 8.68 µM and the TGI (SNB-78 CNS) was 15.5 µM.
`Nc1ncnc2c1ncn2CCOC(c1ccccc1)P(=O)(O)O` (stereo not drawn) was tested, and the TGI (DLD-1 colon) was > 100 µM, the TGI (DMS 273 small cell lung) was > 100 µM and the TGI (KM20L2 colon) was > 100 µM. For the same molecule, the TGI (M19-MEL melanoma) was > 100 µM and the TGI (SNB-78 CNS) was > 100 µM.
With `CCN(CC)C(=S)S` the TGI (DLD-1 colon) was > 100 µM, the TGI (HOP-18 NSCLC) was > 100 µM and the TGI (KM20L2 colon) was > 100 µM. For the same molecule, the TGI (M19-MEL melanoma) was > 37.5 µM, the TGI (RXF-631 renal) was > 67.4 µM and the TGI (SNB-78 CNS) was > 100 µM.
